Measurements published in US12077503B2, “Substituted cyclic amides and their use as herbicides” (FMC CORPORATION, priority 2015, dated 2024).

Tests used:
Test in all cases: Test C preemergence
Type in all cases: in vivo
Details in all cases: scale 0 to 100, 0 no effect, 100 complete control
[1] = system: barnyardgrass (Echinochloa crus-galli)
How it was run: (§1)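 Seeds in loam-sand soil treated preemergence, or plants in peat-based medium sprayed postemergence at 2–18 cm (1- to 4-leaf stage), with compound in a non-phytotoxic solvent mixture containing surfactant. Greenhouse-held 13–15 d, then visually rated against controls on a 0–100 scale (0 = no effect, 100 = complete control); dash = not tested.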

[2] = system: blackgrass (Alopecurus myosuroides)
How it was run: as §1

corn (Zea mays) = system: corn (Zea mays)
How it was run: as §1

[3] = system: crabgrass, large (large crabgrass, Digitaria sanguinalis)
How it was run: as §1

[4] = system: foxtail, giant (giant foxtail, Setaria faberii)
How it was run: as §1

[5] = system: lambsquarters (Chenopodium album)
How it was run: as §1

[6] = system: morningglory (Ipomoea coccinea)
How it was run: as §1

[7] = system: nutsedge, yellow (yellow nutsedge, Cyperus esculentus)
How it was run: as §1

[8] = system: oilseed rape (Brassica napus)
How it was run: as §1

[9] = system: pigweed (Amaranthus retroflexus)
How it was run: as §1

[10] = system: ragweed (common ragweed, Ambrosia elatior)
How it was run: as §1

[11] = system: ryegrass, Italian (Italian ryegrass, Lolium multiflorum)
How it was run: as §1

soybean (Glycine max) = system: soybean (Glycine max)
How it was run: as §1

[12] = system: velvetleaf (Abutilon theophrasti)
How it was run: as §1

[13] = system: waterhemp (common waterhemp, Amaranthus rudis)
How it was run: as §1

[14] = system: wheat (winter wheat, Triticum aestivum)
How it was run: as §1

CN1CC(c2cccc(OC(F)(F)C(F)F)c2)C(C(=O)Nc2ccc(F)cc2F)C1=O (stereo not shown) [Compound 393]
Plant response rating, Barnyardgrass ([1]; 31 g ai/ha): 90
Plant response rating, Barnyardgrass ([1]; 62 g ai/ha): 90
Plant response rating, Barnyardgrass ([1]; 125 g ai/ha): 95
Plant response rating, Barnyardgrass ([1]; 250 g ai/ha): 95
Plant response rating, Blackgrass ([2]; 31 g ai/ha): 10
Plant response rating, Blackgrass ([2]; 62 g ai/ha): 55
Plant response rating, Blackgrass ([2]; 125 g ai/ha): 70
Plant response rating, Blackgrass ([2]; 250 g ai/ha): 90
Plant response rating, Corn (corn (Zea mays); 31 g ai/ha): 0
Plant response rating, Corn (corn (Zea mays); 62 g ai/ha): 40
Plant response rating, Corn (corn (Zea mays); 125 g ai/ha): 55
Plant response rating, Corn (corn (Zea mays); 250 g ai/ha): 70
Plant response rating, Crabgrass, Large ([3]; 31 g ai/ha): 95
Plant response rating, Crabgrass, Large ([3]; 62 g ai/ha): 95
Plant response rating, Crabgrass, Large ([3]; 125 g ai/ha): 95
Plant response rating, Crabgrass, Large ([3]; 250 g ai/ha): 98
Plant response rating, Foxtail, Giant ([4]; 31 g ai/ha): 90
Plant response rating, Foxtail, Giant ([4]; 62 g ai/ha): 95
Plant response rating, Foxtail, Giant ([4]; 125 g ai/ha): 95
Plant response rating, Foxtail, Giant ([4]; 250 g ai/ha): 95
Plant response rating, Lambsquarters ([5]; 31 g ai/ha): 55
Plant response rating, Lambsquarters ([5]; 62 g ai/ha): 75
Plant response rating, Lambsquarters ([5]; 125 g ai/ha): 75
Plant response rating, Lambsquarters ([5]; 250 g ai/ha): 85
Plant response rating, Morningglory ([6]; 31 g ai/ha): 0
Plant response rating, Morningglory ([6]; 62 g ai/ha): 10
Plant response rating, Morningglory ([6]; 125 g ai/ha): 10
Plant response rating, Morningglory ([6]; 250 g ai/ha): 10
Plant response rating, Nutsedge, Yellow ([7]; 31 g ai/ha): 0
Plant response rating, Nutsedge, Yellow ([7]; 62 g ai/ha): 0
Plant response rating, Nutsedge, Yellow ([7]; 125 g ai/ha): 0
Plant response rating, Nutsedge, Yellow ([7]; 250 g ai/ha): 0
Plant response rating, Oilseed Rape ([8]; 31 g ai/ha): 0
Plant response rating, Oilseed Rape ([8]; 62 g ai/ha): 40
Plant response rating, Oilseed Rape ([8]; 125 g ai/ha): 80
Plant response rating, Oilseed Rape ([8]; 250 g ai/ha): 85
Plant response rating, Pigweed ([9]; 31 g ai/ha): 70
Plant response rating, Pigweed ([9]; 62 g ai/ha): 75
Plant response rating, Pigweed ([9]; 125 g ai/ha): 85
Plant response rating, Pigweed ([9]; 250 g ai/ha): 90
Plant response rating, Ragweed ([10]; 31 g ai/ha): 35
Plant response rating, Ragweed ([10]; 62 g ai/ha): 35
Plant response rating, Ragweed ([10]; 125 g ai/ha): 40
Plant response rating, Ragweed ([10]; 250 g ai/ha): 65
Plant response rating, Ryegrass, Italian ([11]; 62 g ai/ha): 30
Plant response rating, Ryegrass, Italian ([11]; 125 g ai/ha): 30
Plant response rating, Ryegrass, Italian ([11]; 250 g ai/ha): 45
Plant response rating, Soybean (soybean (Glycine max); 62 g ai/ha): 10
Plant response rating, Soybean (soybean (Glycine max); 125 g ai/ha): 15
Plant response rating, Soybean (soybean (Glycine max); 250 g ai/ha): 30
Plant response rating, Velvetleaf ([12]; 62 g ai/ha): 35
Plant response rating, Velvetleaf ([12]; 125 g ai/ha): 50
Plant response rating, Velvetleaf ([12]; 250 g ai/ha): 80
Plant response rating, Waterhemp ([13]; 62 g ai/ha): 80
Plant response rating, Waterhemp ([13]; 125 g ai/ha): 85
Plant response rating, Waterhemp ([13]; 250 g ai/ha): 90
Plant response rating, Wheat ([14]; 62 g ai/ha): 20
Plant response rating, Wheat ([14]; 125 g ai/ha): 35
Plant response rating, Wheat ([14]; 250 g ai/ha): 70

CN1CC(c2cccc(C(F)(F)F)c2)C(C)(C(=O)Nc2ccccc2F)C1=O (stereo not shown) [Compound 428]
Plant response rating, Barnyardgrass ([1]; 31 g ai/ha): 90
Plant response rating, Barnyardgrass ([1]; 62 g ai/ha): 95
Plant response rating, Barnyardgrass ([1]; 125 g ai/ha): 95
Plant response rating, Barnyardgrass ([1]; 250 g ai/ha): 98
Plant response rating, Blackgrass ([2]; 31 g ai/ha): 0
Plant response rating, Blackgrass ([2]; 62 g ai/ha): 0
Plant response rating, Blackgrass ([2]; 125 g ai/ha): 30
Plant response rating, Blackgrass ([2]; 250 g ai/ha): 30
Plant response rating, Corn (corn (Zea mays); 31 g ai/ha): 15
Plant response rating, Corn (corn (Zea mays); 62 g ai/ha): 25
Plant response rating, Corn (corn (Zea mays); 125 g ai/ha): 55
Plant response rating, Corn (corn (Zea mays); 250 g ai/ha): 70
Plant response rating, Crabgrass, Large ([3]; 31 g ai/ha): 90
Plant response rating, Crabgrass, Large ([3]; 62 g ai/ha): 95
Plant response rating, Crabgrass, Large ([3]; 125 g ai/ha): 98
Plant response rating, Crabgrass, Large ([3]; 250 g ai/ha): 98
Plant response rating, Foxtail, Giant ([4]; 31 g ai/ha): 85
Plant response rating, Foxtail, Giant ([4]; 62 g ai/ha): 90
Plant response rating, Foxtail, Giant ([4]; 125 g ai/ha): 90
Plant response rating, Foxtail, Giant ([4]; 250 g ai/ha): 95
Plant response rating, Lambsquarters ([5]; 31 g ai/ha): 0
Plant response rating, Lambsquarters ([5]; 62 g ai/ha): 10
Plant response rating, Lambsquarters ([5]; 125 g ai/ha): 35
Plant response rating, Lambsquarters ([5]; 250 g ai/ha): 65
Plant response rating, Morningglory ([6]; 31 g ai/ha): 0
Plant response rating, Morningglory ([6]; 62 g ai/ha): 0
Plant response rating, Morningglory ([6]; 125 g ai/ha): 0
Plant response rating, Morningglory ([6]; 250 g ai/ha): 0
Plant response rating, Nutsedge, Yellow ([7]; 31 g ai/ha): 0
Plant response rating, Nutsedge, Yellow ([7]; 62 g ai/ha): 0
Plant response rating, Nutsedge, Yellow ([7]; 125 g ai/ha): 0
Plant response rating, Nutsedge, Yellow ([7]; 250 g ai/ha): 30
Plant response rating, Oilseed Rape ([8]; 31 g ai/ha): 0
Plant response rating, Oilseed Rape ([8]; 62 g ai/ha): 0
Plant response rating, Oilseed Rape ([8]; 125 g ai/ha): 0
Plant response rating, Oilseed Rape ([8]; 250 g ai/ha): 15
Plant response rating, Pigweed ([9]; 31 g ai/ha): 10
Plant response rating, Pigweed ([9]; 62 g ai/ha): 0
Plant response rating, Pigweed ([9]; 125 g ai/ha): 0
Plant response rating, Pigweed ([9]; 250 g ai/ha): 40
Plant response rating, Ragweed ([10]; 31 g ai/ha): 0
Plant response rating, Ragweed ([10]; 62 g ai/ha): 0
Plant response rating, Ragweed ([10]; 125 g ai/ha): 0
Plant response rating, Ragweed ([10]; 250 g ai/ha): 0
Plant response rating, Ryegrass, Italian ([11]; 62 g ai/ha): 40
Plant response rating, Ryegrass, Italian ([11]; 125 g ai/ha): 40
Plant response rating, Ryegrass, Italian ([11]; 250 g ai/ha): 45
Plant response rating, Soybean (soybean (Glycine max); 62 g ai/ha): 0
Plant response rating, Soybean (soybean (Glycine max); 125 g ai/ha): 0
Plant response rating, Soybean (soybean (Glycine max); 250 g ai/ha): 15
Plant response rating, Velvetleaf ([12]; 62 g ai/ha): 0
Plant response rating, Velvetleaf ([12]; 125 g ai/ha): 0
Plant response rating, Velvetleaf ([12]; 250 g ai/ha): 10
Plant response rating, Waterhemp ([13]; 62 g ai/ha): 0
Plant response rating, Waterhemp ([13]; 125 g ai/ha): 10
Plant response rating, Waterhemp ([13]; 250 g ai/ha): 35
Plant response rating, Wheat ([14]; 62 g ai/ha): 15
Plant response rating, Wheat ([14]; 125 g ai/ha): 50
Plant response rating, Wheat ([14]; 250 g ai/ha): 80
